From patent publication US11000033B2, “Ketone or oxime compound, and herbicide” (NISSAN CHEMICAL CORPORATION, priority 2014, dated 2021) come the findings set out here.

The structures appear in SMILES notation.

Assay type in all cases: in vivo
Data set [1] concerns Abutilon theophrasti. Description: Test Example 4: herbicidal effect by soil treatment (symbol M). As to conditions: application herbicide amount 320 g/ha. In outline: (§1)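 Seeds were sown in sterilized diluvial soil, covered with about 1.5 cm of soil, and the soil surface was sprayed with a water-diluted emulsion of the compound at a predetermined rate. Plants grew in a greenhouse at 25° C. to 30° C.; effects were scored visually 3 weeks after application.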

The subject of data set [2] is Alopecurus myosuroides. Put plainly: Test Example 4: herbicidal effect by soil treatment (symbol J). The following applies: application herbicide amount 320 g/ha. In outline:
as §1

Data set [3] has as its system Amaranthus retroflexus. Description: Test Example 5: herbicidal effect by foliage application, plastic box (symbol N). The following applies: 320 g/ha, 3 weeks after application. In outline:
(§2)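 After sowing into sterilized diluvial soil and growing two weeks under glass at 25° C. to 30° C., seedlings receive a uniform foliar spray of diluted emulsion. Damage is judged visually three weeks on.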

Data set [4] relates to Apera spica-venti. Description: Test Example 5: herbicidal effect by foliage application, plastic box (symbol L). The following applies: 320 g/ha, 3 weeks after application. In outline:
as §2

The subject of data set [5] is Echinochloa crus-galli var. crus-galli. Put plainly: Test Example 3: herbicidal effect by foliage application, Wagner pot (symbol H). As to conditions: application herbicide amount 320 g/ha. In outline: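 Steps: fill pot with alluvial soil; add water to 0.1–0.5 cm depth; sow weed and rice seed; grow 14 days at 25–30 °C; spray diluted emulsion over the leaves; rate effect after 3 weeks.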

Data set [6] has as its system Abutilon theophrasti. Put plainly: Test Example 5: herbicidal effect by foliage application, plastic box (symbol M). As to conditions: 320 g/ha, 3 weeks after application. In short, it runs like this:
as §2

Data set [7] has as its system rice plant. Put plainly: Test Example 5: effect on crop by foliage application, plastic box (symbol b). As to conditions: 320 g/ha, 3 weeks after application. In outline:
(§3)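 In a plastic box 7 cm deep filled with sterilized diluvial soil, seeds of crops and weeds such as Digitaria ciliaris, Avena fatua and Amaranthus retroflexus are sown in spots and covered with about 1.5 cm of soil before greenhouse growth at 25–30° C.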

The subject of data set [8] is Avena fatua. Description: Test Example 4: herbicidal effect by soil treatment (symbol I). The following applies: application herbicide amount 320 g/ha. In outline: as §1
Data set [9] concerns Digitaria ciliaris. Description: Test Example 5: herbicidal effect by foliage application, plastic box (symbol F). The following applies: 320 g/ha, 3 weeks after application. In short, it runs like this:
as §2

Data set [10] relates to Echinochloa oryzacola Vasing. Put plainly: Test Example 2: herbicidal activity, application during weed generation in submerged conditions (symbol A). As to conditions: Table 23; application herbicide amount 320 g/ha; grade 0-5 by criteria of Test Example 1. In outline:
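Submerged alluvial soil (4 cm) sown with mixed seed; greenhouse 25–30° C. 1–2 leaf: diluted emulsion onto water surface, preset dose. Visual score, 3 wk.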

Data set [11] relates to soybean. Description: Test Example 5: effect on crop by foliage application, plastic box (symbol d). The following applies: 320 g/ha, 3 weeks after application. In short, it runs like this: as §3
Data set [12] relates to Digitaria ciliaris. Description: Test Example 4: herbicidal effect by soil treatment (symbol F). The following applies: application herbicide amount 320 g/ha. In outline:
as §1

In data set [13] the test system is beet. Put plainly: Test Example 5: effect on crop by foliage application, plastic box (symbol f). As to conditions: 320 g/ha, 3 weeks after application. In outline: as §3
The subject of data set [14] is Veronica persica. Put plainly: Test Example 5: herbicidal effect by foliage application, plastic box (symbol R). As to conditions: 320 g/ha, 3 weeks after application. In short, it runs like this:
as §2

As for `CC(CC1CC(O)=C(c2c(C)cc(C)cc2C)C1=O)=NOCc1ccccc1F` (stereo not shown) [1-026], the “M (Abutilon theophrasti) herbicidal effect grade” value in [1] is 0 (Herbicidal ratio of 5% or lower (almost no effect)). Further, the “J (Alopecurus myosuroides) herbicidal effect grade” value in data set [2] is recorded as 5 (Herbicidal ratio of 90% or more (almost completely withered)). For the same compound, the “N: Amaranthus retroflexus, herbicidal effect grade” value in data set [3] is 0 (Herbicidal ratio of 5% or lower (almost no effect)). Besides, the “L: Apera spica-venti, herbicidal effect grade” value in data set [4] is on record as 5 (Herbicidal ratio of 90% or more (almost completely withered)). Further, the “herbicidal effect on H (Echinochloa crus-galli var. crus-galli), grade 0-5” value (“herbicidal effect on H” below) in data set [5] is reported as 5 (Herbicidal ratio of 90% or more (almost completely withered)). For the same compound, the “M: Abutilon theophrasti, herbicidal effect grade” value in data set [6] is on record as 0 (Herbicidal ratio of 5% or lower (almost no effect)). In [7], the “b: directly sowed rice plant, effect on crop grade” value was 5 (Herbicidal ratio of 90% or more (almost completely withered)). In addition, the “I (Avena fatua) herbicidal effect grade” value in [8] was 3 (Herbicidal ratio of 40% or higher and lower than 70%). In addition, the “F: Digitaria ciliaris, herbicidal effect grade” value in data set [9] is 5 (Herbicidal ratio of 90% or more (almost completely withered)). Further, in data set [10], the “Herbicidal effect grade, A: Echinochloa oryzacola Vasing.” value is 5 (Herbicidal ratio of 90% or more (almost completely withered)). Besides, in data set [11], the “d: soybean, effect on crop grade” value is 0 (Herbicidal ratio of 5% or lower (almost no effect)). In addition, the “F (Digitaria ciliaris) herbicidal effect grade” value in data set [12] is reported as 5 (Herbicidal ratio of 90% or more (almost completely withered)).

Regarding `CON=CC(C)(C)C1CC(O)=C(c2c(C)cc(C)cc2C)C1=O` (stereo not shown) [1-030], the “M (Abutilon theophrasti) herbicidal effect grade” value in data set [1] was 0 (Herbicidal ratio of 5% or lower (almost no effect)). In addition, the “f: beet, effect on crop grade” value in data set [13] is reported as 0 (Herbicidal ratio of 5% or lower (almost no effect)). Further, in data set [2], the “J (Alopecurus myosuroides) herbicidal effect grade” value is 3 (Herbicidal ratio of 40% or higher and lower than 70%). In addition, the “N: Amaranthus retroflexus, herbicidal effect grade” value in data set [3] is 0 (Herbicidal ratio of 5% or lower (almost no effect)). In addition, the “L: Apera spica-venti, herbicidal effect grade” value in data set [4] is 4 (Herbicidal ratio of 70% or higher and lower than 90%). Also, the “herbicidal effect on H” value in data set [5] is recorded as 5 (Herbicidal ratio of 90% or more (almost completely withered)). Besides, the “M: Abutilon theophrasti, herbicidal effect grade” value in data set [6] is listed as 0 (Herbicidal ratio of 5% or lower (almost no effect)). Also, the “b: directly sowed rice plant, effect on crop grade” value in data set [7] is given as 5 (Herbicidal ratio of 90% or more (almost completely withered)). In addition, the “R: Veronica persica, herbicidal effect grade” value in data set [14] is 0 (Herbicidal ratio of 5% or lower (almost no effect)). Further, the “I (Avena fatua) herbicidal effect grade” value in data set [8] was 0 (Herbicidal ratio of 5% or lower (almost no effect)). The “F: Digitaria ciliaris, herbicidal effect grade” value in data set [9] was 4 (Herbicidal ratio of 70% or higher and lower than 90%). Moreover, in data set [10], the “Herbicidal effect grade, A: Echinochloa oryzacola Vasing.” value is 2 (Herbicidal ratio of 20% or higher and lower than 40%). In addition, the “d: soybean, effect on crop grade” value in [11] is reported as 0 (Herbicidal ratio of 5% or lower (almost no effect)). Further, in data set [12], the “F (Digitaria ciliaris) herbicidal effect grade” value was 3 (Herbicidal ratio of 40% or higher and lower than 70%).

Take `CON=C(C)CC1CC(OC(=O)COc2ccc(Cl)cc2)=C(c2c(C)cc(C)cc2C)C1=O` (stereo not shown) [1-044]: in data set [1], the “M (Abutilon theophrasti) herbicidal effect grade” value is 5 (Herbicidal ratio of 90% or more (almost completely withered)). For the same compound, the “f: beet, effect on crop grade” value in data set [13] was 2 (Herbicidal ratio of 20% or higher and lower than 40%). For the same compound, the “J (Alopecurus myosuroides) herbicidal effect grade” value in data set [2] is reported as 5 (Herbicidal ratio of 90% or more (almost completely withered)). For the same compound, the “N: Amaranthus retroflexus, herbicidal effect grade” value in data set [3] was 2 (Herbicidal ratio of 20% or higher and lower than 40%). Further, the “L: Apera spica-venti, herbicidal effect grade” value in data set [4] is reported as 5 (Herbicidal ratio of 90% or more (almost completely withered)). Besides, the “herbicidal effect on H” value in [5] is 5 (Herbicidal ratio of 90% or more (almost completely withered)). Further, the “M: Abutilon theophrasti, herbicidal effect grade” value in data set [6] is 4 (Herbicidal ratio of 70% or higher and lower than 90%). Moreover, the “b: directly sowed rice plant, effect on crop grade” value in [7] is recorded as 5 (Herbicidal ratio of 90% or more (almost completely withered)). The “R: Veronica persica, herbicidal effect grade” value in data set [14] is 0 (Herbicidal ratio of 5% or lower (almost no effect)). For the same compound, the “I (Avena fatua) herbicidal effect grade” value in data set [8] is 2 (Herbicidal ratio of 20% or higher and lower than 40%). Also, the “F: Digitaria ciliaris, herbicidal effect grade” value in [9] was 5 (Herbicidal ratio of 90% or more (almost completely withered)). Also, the “Herbicidal effect grade, A: Echinochloa oryzacola Vasing.” value in data set [10] was 5 (Herbicidal ratio of 90% or more (almost completely withered)). In data set [11], the “d: soybean, effect on crop grade” value was 4 (Herbicidal ratio of 70% or higher and lower than 90%). For the same compound, in data set [12], the “F (Digitaria ciliaris) herbicidal effect grade” value was 5 (Herbicidal ratio of 90% or more (almost completely withered)).

For `CON=C(C)CC1CC(OC(=O)COc2ccc(Cl)cc2Cl)=C(c2c(C)cc(C)cc2C)C1=O` (stereo not shown) [1-075], in data set [1], the “M (Abutilon theophrasti) herbicidal effect grade” value is recorded as 5 (Herbicidal ratio of 90% or more (almost completely withered)). Moreover, in data set [2], the “J (Alopecurus myosuroides) herbicidal effect grade” value was 5 (Herbicidal ratio of 90% or more (almost completely withered)). In [3], the “N: Amaranthus retroflexus, herbicidal effect (criteria 0-5)” value is 4 (Herbicidal ratio of 70% or higher and lower than 90%). Also, the “L: Apera spica-venti, herbicidal effect (criteria 0-5)” value in data set [4] is recorded as 5 (Herbicidal ratio of 90% or more (almost completely withered)). The “herbicidal effect on H” value in data set [5] is recorded as 5 (Herbicidal ratio of 90% or more (almost completely withered)). The “M: Abutilon theophrasti, herbicidal effect (criteria 0-5)” value in data set [6] was 4 (Herbicidal ratio of 70% or higher and lower than 90%). In addition, in data set [7], the “b: directly sowed rice plant, effect on crop (criteria 0-5)” value is recorded as 5 (Herbicidal ratio of 90% or more (almost completely withered)). For the same compound, the “R: Veronica persica, herbicidal effect (criteria 0-5)” value in data set [14] is listed as 0 (Herbicidal ratio of 5% or lower (almost no effect)). Moreover, the “F: Digitaria ciliaris, herbicidal effect (criteria 0-5)” value in data set [9] is 5 (Herbicidal ratio of 90% or more (almost completely withered)). Further, the “Herbicidal effect grade, A: Echinochloa oryzacola Vasing.” value in data set [10] was 5 (Herbicidal ratio of 90% or more (almost completely withered)). Moreover, the “d: soybean, effect on crop (criteria 0-5)” value in data set [11] is 1 (Herbicidal ratio of 5% or higher and lower than 20%). For the same compound, the “F (Digitaria ciliaris) herbicidal effect grade” value in data set [12] is listed as 5 (Herbicidal ratio of 90% or more (almost completely withered)).
